Results: PubChem BioAssay (NCI)
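96-well plates; 48 h exposure; 5 concentrations. Endpoints by linear interpolation between flanking doses. Not reached: highest tested concentration assigned. GI50: concentration for 50% inhibition of growth. TGI marks complete inhibition of growth.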

Tests used:
Assay in all cases: NCI-60 cell line screen, 48 h
786-0 renal = tested on: 786-0 renal
A549 NSCLC = tested on: A549 NSCLC
CCRF-CEM leukemia = tested on: CCRF-CEM leukemia
HCT-116 colon = tested on: HCT-116 colon
OVCAR-3 ovarian = tested on: OVCAR-3 ovarian
SF-268 CNS = tested on: SF-268 CNS
SK-MEL-2 melanoma = tested on: SK-MEL-2 melanoma
U251 CNS = tested on: U251 CNS
UACC-257 melanoma = tested on: UACC-257 melanoma
A498 renal = tested on: A498 renal

SMILES	TGI (786-0 renal)	TGI (A549 NSCLC)	TGI (CCRF-CEM leukemia)	TGI (HCT-116 colon)	TGI (OVCAR-3 ovarian)	TGI (SF-268 CNS)	TGI (SK-MEL-2 melanoma)	TGI (U251 CNS)	TGI (UACC-257 melanoma)	TGI (A498 renal)	GI50 (786-0 renal)	GI50 (A498 renal)	GI50 (A549 NSCLC)	GI50 (HCT-116 colon)	GI50 (OVCAR-3 ovarian)	GI50 (SF-268 CNS)	GI50 (SK-MEL-2 melanoma)	GI50 (U251 CNS)	GI50 (UACC-257 melanoma)	GI50 (CCRF-CEM leukemia)
CC1(C)N=C(N)N=C(N)N1c1ccc(OCC(=O)Nc2cccc(S(=O)(=O)F)c2)c(Cl)c1	> 42.5 µM	> 100 µM	> 100 µM	> 100 µM	> 76.8 µM	> 41.3 µM	> 100 µM	> 100 µM	> 14.2 µM											
C/C(=N\NS(=O)(=O)c1ccc(C)cc1)c1ccc[n+]([O-])n1	> 100 µM	> 100 µM	82.5 µM	> 100 µM	> 100 µM	> 100 µM		> 100 µM	> 100 µM	> 100 µM										
COc1ccc(C[C@H]2C[C@@H](O)[C@@H](C)C/C=C/Cc3cccc(O)c3C(=O)O2)cn1	77.7 µM	> 100 µM		37.6 µM	> 100 µM	53.5 µM	34.5 µM	36.1 µM	71.4 µM	31.4 µM	18 µM	712 nM	28.6 µM	19.5 µM	50.5 µM	15.9 µM	14.7 µM	17.9 µM	21.5 µM	
COc1ccc2c(c1O)[C@@]13C=C(O)C(=O)C=C1[C@@H](C2)N(C)CC3	> 100 µM	> 100 µM	> 100 µM	> 100 µM	> 100 µM	> 100 µM	> 100 µM	> 100 µM	> 100 µM											
CC1=C(C#N)C(N)=C2C(C)=C(C#N)C(N)=C12	> 100 µM	> 100 µM	> 100 µM	> 100 µM	> 100 µM	> 100 µM		> 100 µM	> 100 µM	> 100 µM										
Cc1nnc([S-])s1.[Au+].c1ccc([PH+](c2ccccc2)c2ccccc2)cc1	3.32 µM		6.91 µM		3.14 µM		3.11 µM		3.09 µM		1.78 µM				1.73 µM		1.64 µM		1.52 µM	2040 nM
COC(=O)C(CC=O)C(=O)C(=O)Nc1cccc(C(F)(F)F)c1 (stereo not drawn)	> 100 µM	> 100 µM	> 100 µM	> 100 µM	> 100 µM	> 100 µM	> 100 µM	> 100 µM	> 100 µM											
CC1CCC(O)C(C(O)CC2CC(=O)N(C)C(=O)C2)C1 (stereo not drawn)	> 100 µM	> 100 µM	> 100 µM	> 100 µM	> 100 µM	> 100 µM		> 100 µM	> 100 µM	> 100 µM										
O=C(OCc1ccccc1CN1CCOCC1)c1ccc(Br)cc1	> 100 µM	> 100 µM		> 100 µM	83.2 µM	> 100 µM	> 100 µM	> 100 µM	> 100 µM	> 100 µM										
Brc1ccc2c(c1)C1(c3cc(Br)ccc3-2)c2cc(Br)ccc2-c2ccc(Br)cc21	> 100 µM	> 100 µM	> 100 µM	> 100 µM	> 100 µM	> 100 µM	> 100 µM	> 100 µM	> 100 µM											
O=C(CCCCCCCCCCc1ccccc1)c1c(O)cccc1O	32.3 µM	76.1 µM	90.8 µM	48.3 µM	63.1 µM	57.8 µM	31.3 µM	38.1 µM	38.8 µM											
CC(CC(=O)O)(CC(=O)O)C(=O)O	> 100 µM	> 100 µM		> 100 µM	> 100 µM	> 100 µM	> 100 µM	> 100 µM	> 100 µM	> 100 µM										
O=C1OCC(C(=O)c2cccc(O)c2)C1=O (stereo not drawn)	> 100 µM	> 100 µM		> 100 µM	> 100 µM	> 100 µM		> 100 µM	> 100 µM	> 100 µM										
COc1c(O)c(OC)c(C(=O)/C=C/c2ccccc2)c(O)c1OC	> 100 µM		> 100 µM	34.5 µM	51.3 µM	> 100 µM	61.2 µM	> 100 µM	> 100 µM											
CC(=O)NC1C(OCc2ccccc2)OC(COC(=O)CCCCCCCCCCNC(=O)c2cccc3c(=O)c4ccccc4[nH]c23)C(O)C1OC(C)C(=O)NC(C)C(=O)NC(CCC(N)=O)C(N)=O (stereo not drawn)	> 100 µM	> 100 µM		> 100 µM	> 100 µM	> 100 µM	> 100 µM	> 100 µM	> 100 µM	> 100 µM										
N#Cc1c2c(c(N=[N+]=[N-])n3c1nc1ccccc13)CCCC2	3.53 µM	17 µM		3.51 µM	10.3 µM	16 µM	3.58 µM	10.3 µM	3.12 µM	6.1 µM										
S=C(Nc1ccccc1)Nc1[nH]c(=S)sc1-c1nc2ccccc2[nH]1	> 100 µM	> 100 µM	> 100 µM		> 100 µM	> 100 µM	> 100 µM	> 100 µM	> 100 µM	> 100 µM										
COC(=O)/C(C#N)=C1\N=NNN1CCCN1CCOCC1	> 100 µM	> 100 µM	> 100 µM	> 100 µM	> 100 µM			> 100 µM	> 100 µM	> 100 µM										
CC(CS(=O)(=O)Cc1ccccc1)C(N)=O (stereo not drawn)	> 100 µM	> 100 µM		> 100 µM	> 100 µM	> 100 µM	> 100 µM	> 100 µM	> 100 µM	> 100 µM										
CN1CC2(CCCCC2)C(O)C12C=CCCC2 (stereo not drawn)	> 100 µM	> 100 µM	> 100 µM		> 100 µM	> 100 µM	> 100 µM	> 100 µM	> 100 µM	> 100 µM										
CCOC(=O)c1cnc2[nH]c(=O)c3ccccc3n2c1=O	> 100 µM	> 100 µM	> 100 µM	> 100 µM	> 100 µM	> 100 µM	> 100 µM	> 100 µM	> 100 µM											
Cc1nnc2n1N=C(CC(=O)c1ccc(O)cc1O)CN2N	> 100 µM	> 100 µM	> 100 µM	> 100 µM		> 100 µM	> 100 µM	> 100 µM	> 100 µM	> 100 µM										
CC(C)OP(=O)(CP(=O)(OC(C)C)OC(C)C)OC(C)C.[CH3][Sn]([Br])([Br])[Br]	> 100 µM	> 100 µM	> 100 µM		> 100 µM	> 100 µM	> 100 µM	> 100 µM	> 100 µM	> 100 µM	> 100 µM	> 100000 nM	> 100 µM		> 100 µM	> 100 µM	> 100 µM	> 100 µM	> 100 µM	> 100000 nM
